Assay results: PMC6364417, “Kinase inhibitor library screening identifies synergistic drug combinations effective in sensitive and resistant melanoma cells” (Journal of Experimental & Clinical Cancer Research : CR, 2019)

Legend:
Experiment in all cases: Kinase inhibitor library screening, PrestoBlue cell viability, 1 or 10 μM, 72 h
[1] = system: 501Mel cells (parental); details: 501Mel Parental, in %
How it was run: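 PrestoBlue viability readout after 72 h exposure to each inhibitor at 1 or 10 μM, reported relative to untreated cells as % viability. Lines tested: sensitive parental plus derivatives resistant to Vemurafenib (XP) or Dabrafenib (GP), each run at least in duplicate.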

[2] = system: 501Mel-GP cells (Dabrafenib-resistant); details: 501Mel GP, in %
[3] = system: 501Mel-XP cells (Vemurafenib-resistant); details: 501Mel XP, in %
[4] = system: A375 cells (parental); details: A375 Parental; for cell viability (kinase inhibitor library screening): in %
[5] = system: A375-GP cells (Dabrafenib-resistant); details: A375 GP; for cell viability (kinase inhibitor library screening): in %
[6] = system: A375-XP cells (Vemurafenib-resistant); details: A375 XP; for cell viability (kinase inhibitor library screening): in %
[7] = system: IGR37 cells (parental); details: IGR37 Parental, in %
[8] = system: IGR37-GP cells (Dabrafenib-resistant); details: IGR37 GP
[9] = system: IGR37-XP cells (Vemurafenib-resistant); details: IGR37 XP

Row | SMILES | cell viability (kinase inhibitor library screening) ([1]; 1μΜ) | cell viability (kinase inhibitor library screening) ([1]; 10μΜ) | cell viability (kinase inhibitor library screening) ([2]; 1μΜ) | cell viability (kinase inhibitor library screening) ([2]; 10μΜ) | cell viability (kinase inhibitor library screening) ([3]; 10μΜ) | cell viability (kinase inhibitor library screening) ([4]; 1μΜ) | cell viability (kinase inhibitor library screening) ([4]; 10μΜ) | cell viability (kinase inhibitor library screening) ([5]; 1μΜ) | cell viability (kinase inhibitor library screening) ([5]; 10μΜ) | cell viability (kinase inhibitor library screening) ([6]; 10μΜ) | cell viability (kinase inhibitor library screening) ([7]; 1μΜ) | cell viability (kinase inhibitor library screening) ([7]; 10μΜ) | cell viability (kinase inhibitor library screening) ([8]; 1μΜ, in %) | cell viability (kinase inhibitor library screening) ([8]; 10μΜ, in %) | cell viability (kinase inhibitor library screening) ([9]; 1μΜ, in %) | cell viability (kinase inhibitor library screening) ([9]; 10μΜ, in %) | also measured
1 | CNC(=O)c1cc(COc2nnc(Nc3ccc(Cl)cc3)c3ccoc23)ccn1 [Telatinib (BAY 57-9352)] | 96.8 | 90.0 | 99.0 | 76.1 | 68.9 | 99.4 | 95.9 | 98.3 | 92.0 | 95.7 | 99.2 | 97.3 | 94.5 | 88.0 | 98.1 | 70.8 | cell viability (kinase inhibitor library screening) ([6]; 1μΜ): 96.6
2 | Nc1cc(C(F)(F)F)c(-c2cc(N3CCOCC3)nc(N3CCOCC3)n2)cn1 [BKM120 (Buparlisib)] | – | – | – | – | – | – | – | – | – | – | – | – | – | – | – | – | Cell viability in kinase inhibitor library screening, 501Mel Parental, 1μΜ ([1]; 1μΜ, 72 h): 71.1; Cell viability in kinase inhibitor library screening, 501Mel Parental, 10μΜ ([1]; 10μΜ, 72 h): 10.8; Cell viability in kinase inhibitor library screening, 501Mel GP, 1μΜ ([2]; 1μΜ, 72 h): 60.8; Cell viability in kinase inhibitor library screening, 501Mel GP, 10μΜ ([2]; 10μΜ, 72 h): 9.6; Cell viability in kinase inhibitor library screening, 501Mel XP, 1μΜ ([3]; 1μΜ, 72 h): 54.8; Cell viability in kinase inhibitor library screening, 501Mel XP, 10μΜ ([3]; 10μΜ, 72 h): 3.6; Cell viability in kinase inhibitor library screening, A375 Parental, 10μΜ ([4]; 10μΜ, 72 h): 9.8; Cell viability in kinase inhibitor library screening, A375 Parental, 1μΜ ([4]; 1μΜ, 72 h): 67.0; Cell viability in kinase inhibitor library screening, A375 GP, 1μΜ ([5]; 1μΜ, 72 h): 59.6; Cell viability in kinase inhibitor library screening, A375 GP, 10μΜ ([5]; 10μΜ, 72 h): 7.7; Cell viability in kinase inhibitor library screening, A375 XP, 1μΜ ([6]; 1μΜ, 72 h): 70.4; Cell viability in kinase inhibitor library screening, A375 XP, 10μΜ ([6]; 10μΜ, 72 h): 10.0; Cell viability in kinase inhibitor library screening, IGR37 Parental, 1μΜ ([7]; 1μΜ, 72 h): 91.7; Cell viability in kinase inhibitor library screening, IGR37 Parental, 10μΜ ([7]; 10μΜ, 72 h): 30.3; Cell viability in kinase inhibitor library screening, IGR37 GP, 10μΜ ([8]; 10μΜ, 72 h): 20.9%; Cell viability in kinase inhibitor library screening, IGR37 GP, 1μΜ ([8]; 1μΜ, 72 h, in %): 82.3; Cell viability in kinase inhibitor library screening, IGR37 XP, 10μΜ ([9]; 10μΜ, 72 h): 7.4%; Cell viability in kinase inhibitor library screening, IGR37 XP, 1μΜ ([9]; 1μΜ, 72 h, in %): 78.7
3 | CCCNC(=O)Nc1ccc(Oc2ncnc3cc(OC)c(OC)cc23)cc1Cl [KRN 633] | 94.4 | 91.7 | 106.2 | 89.7 | 80.1 | 103.4 | 92.6 | 99.0 | 89.8 | 103.6 | 99.7 | 109.9 | 92.2 | 93.4 | 98.3 | 68.5 | –
